Assays:
Assay type in all cases: biochemical
TtgR = target: T1, TtgR (Pseudomonas putida, UniProt Q88N29); assay: TtgR-regulated in vitro transcription with TMSD fluorescence output; conditions: TtgR-regulated reactions, with and without ligand
T1 construct: made in house; host or cells: E. coli Rosetta 2(DE3)pLysS, pET-28c plasmid (pJBL721)
Experimental: (§1) In addition to TetR, we chose TtgR [44] and SmtB [45] as representative aTFs of the MarR family and SmtB/ArsR family, respectively. We placed the cognate operator sequence of each aTF 2-bp downstream of the T7 promoter and immediately upstream of the InvadeR sequences (FIG. 4a-c). When tetracycline was used to induce TetR-regulated reactions, we observed a strong and robust fluorescent signal visible in ˜10 minutes (FIG. 4d, FIG. 13a). […] We note that we observed a slight decrease in the induction speed from the TtgR-regulated reactions compared to that of the TetR-regulated reactions, likely due to the reduced ttgO DNA template concentration needed to accommodate TtgR's relatively weak binding affinity to its operator sequence.
(§2) Regulated IVT reactions additionally included a purified aTF at the indicated concentration and were equilibrated at 37° C. for ˜10 minutes. Immediately prior to plate reader measurements, 2 ng of T7 RNAP and, optionally, a ligand at the indicated concentration were added to the reaction. Reactions were then characterized on a plate reader as described in Plate reader quantification and micromolar equivalent fluorescein (MEF) standardization.

TetR = target: T2, TetR (Escherichia coli, UniProt P04483)
T2 construct: made in house; host or cells: E. coli Rosetta 2(DE3)pLysS, pET-28c plasmid (pJBL701)
From the text: Next, we sought to determine whether the transcription of InvadeR can be regulated with an aTF, thus creating a ligand-responsive biosensor that uses TMSD outputs. This required us to insert an aTF operator sequence in between the T7 promotor and InvadeR sequence to allow an aTF to regulate transcription. […] To test if this spacing remained important in the TMSD platform, we used TetR as our model aTF to determine the optimum spacing for efficient repression in the presence of TetR and efficient transcription in the absence of TetR [41]. […] However, robust fluorescence signal was observed without TetR when using a 2-bp spacer, which was reduced to nearly baseline levels when regulated by TetR. […]
Using the 2-bp spacer, we next determined whether TetR can be de-repressed with its cognate ligand, anhydrotetracycline (aTc) to allow transcription of InvadeR (FIG. 3c). […]
as §2

SmtB = target: T3, SmtB (Synechococcus elongatus, UniProt P30340); assay: SmtB-regulated in vitro transcription with TMSD fluorescence output; conditions: SmtB-regulated reaction, optimized smtO-Hairpin2-InvadeR design
T3 construct: 6xHis (C); made in house; host or cells: E. coli Rosetta 2(DE3)pLysS, pET-28c plasmid (pJBL725)
T3 sequence (P30340 with tags, fused parts or gaps): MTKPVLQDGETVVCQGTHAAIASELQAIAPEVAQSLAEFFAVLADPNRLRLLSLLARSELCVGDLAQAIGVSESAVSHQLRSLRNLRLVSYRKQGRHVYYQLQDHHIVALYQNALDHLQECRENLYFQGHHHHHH
Experimental: as §1
We were immediately successful in adapting the system to TetR and TtgR (FIG. 4a, b). […]
as §2

T1 sequence (Q88N29 other isoform, or with tags, fused parts or gaps): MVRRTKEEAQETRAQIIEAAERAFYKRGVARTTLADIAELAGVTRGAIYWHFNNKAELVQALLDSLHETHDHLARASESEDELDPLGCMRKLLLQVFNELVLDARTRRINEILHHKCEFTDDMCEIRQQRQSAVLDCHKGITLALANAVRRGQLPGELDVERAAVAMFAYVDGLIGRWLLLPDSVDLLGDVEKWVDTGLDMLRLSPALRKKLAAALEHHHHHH

O=C1C[C@@H](c2ccc(O)cc2)Oc2cc(O)cc(O)c21 [naringenin]
fluorescence activation by ligand (TtgR): robust fluorescence activation only in the presence of the ligand

Cc1c2c(c(O)c3c(O)cccc13)C(=O)[C@]1(O)C(=O)C(C(N)=O)=C(O)[C@@H](N(C)C)[C@@H]1C2 [aTc, anhydrotetracycline]
time until fluorescence is visible (TetR; TetR-regulated InvadeR output induced with the ligand (aTc 10 μM)): ~10 min | speed of fluorescence activation relative to the RNA aptamer platform (TetR; equimolar amounts of DNA template, TetR and aTc): approximately 5 times

O=S(=O)([O-])[O-].[Zn+2] [ZnSO4]
fluorescence activation by ligand (SmtB): clear activation of a SmtB-regulated reaction in the presence of ZnSO4 with low background signal
